For one cell line, relative viability results are on record in the supplement of paper PMC10307832.

Common to all, as to test: relative viability (nuclei count vs DMSO), 5 days (fraction); higher = more cells survive
Compound in the experiment “Linsitinib + Phenformin”: C[C@]1(O)C[C@@H](c2nc(-c3ccc4ccc(-c5ccccc5)nc4c3)c3c(N)nccn32)C1 [Linsitinib] + N=C(N)NC(=N)NCCc1ccccc1 [Phenformin] (partner 250 µM)
Put shortly: (§1)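 Relative viability divides the nuclei count in treated wells by that in vehicle wells. Lung cancer cell lines were seeded in 1536-well plates, dosed by pin tool the next day, and fixed and stained after 5 days in one step with final 0.05% Triton X-100, 1% formaldehyde and 1 ug/ml Hoechst. Dosing was a single drug or a fixed anchor-drug dose plus five library-drug doses (not always all listed) in √10 steps, and values are medians of duplicate plates imaged at 4×.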

Compound in the experiment “Linsitinib + Olaparib”: C[C@]1(O)C[C@@H](c2nc(-c3ccc4ccc(-c5ccccc5)nc4c3)c3c(N)nccn32)C1 [Linsitinib] + O=C(c1cc(Cc2n[nH]c(=O)c3ccccc23)ccc1F)N1CCN(C(=O)C2CC2)CC1 [Olaparib] (partner 8 µM)
In short, it runs like this: as §1

Compound in the experiment “Linsitinib + Pemetrexed”: C[C@]1(O)C[C@@H](c2nc(-c3ccc4ccc(-c5ccccc5)nc4c3)c3c(N)nccn32)C1 [Linsitinib] + Nc1nc2[nH]cc(CCc3ccc(C(=O)N[C@@H](CCC(=O)O)C(=O)O)cc3)c2c(=O)[nH]1 [Pemetrexed] (partner 0.2 µM)
Put shortly:
as §1

Compound in the experiment “Linsitinib + Decitabine”: C[C@]1(O)C[C@@H](c2nc(-c3ccc4ccc(-c5ccccc5)nc4c3)c3c(N)nccn32)C1 [Linsitinib] + Nc1ncn([C@H]2C[C@H](O)[C@@H](CO)O2)c(=O)n1 [Decitabine] (partner 2 µM)
In short, it runs like this:
as §1

For UMC-11, the relative viability with Linsitinib + Phenformin (first compound 0.01 µM) stood at 0.332; with Linsitinib + Phenformin (first compound 0.03162 µM), 0.29; with Linsitinib + Phenformin (first compound 0.1 µM), 0.343; in the experiment with Linsitinib + Phenformin (first compound 1 µM) it was 0.321; in the experiment with Linsitinib + Olaparib (first compound 0.01 µM) it was 0.361; with Linsitinib + Olaparib (first compound 0.03162 µM), 0.352. The relative viability stood at 0.421 in the experiment with Linsitinib + Olaparib (first compound 0.1 µM); 0.273 in the experiment with Linsitinib + Olaparib (first compound 0.3162 µM); 0.329 with Linsitinib + Olaparib (first compound 1 µM); 0.7 with Linsitinib + Pemetrexed (first compound 0.01 µM); 0.771 with Linsitinib + Pemetrexed (first compound 0.03162 µM); 0.817 in the experiment with Linsitinib + Pemetrexed (first compound 0.1 µM). Moreover, the relative viability in the experiment with Linsitinib + Pemetrexed (first compound 0.3162 µM) is 0.597; with Linsitinib + Pemetrexed (first compound 1 µM), 0.776; with Linsitinib + Decitabine (first compound 0.01 µM) it was 0.627; with Linsitinib + Decitabine (first compound 0.03162 µM), 0.458; with Linsitinib + Decitabine (first compound 0.1 µM) it was 0.642; in the experiment with Linsitinib + Decitabine (first compound 0.3162 µM), 0.423. Also, the relative viability in the experiment with Linsitinib + Decitabine (first compound 1 µM) turned out to be 0.527.
